Measurements from PubChem BioAssay (NCI).
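Compound exposure: 48 hours, 5 concentrations, 96-well plates. At the TGI there is no net growth.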

Key:
Assay in all cases: growth of human tumour cells (NCI), 48 h
786-0 renal = system: 786-0 renal
A498 renal = system: A498 renal
A549 NSCLC = system: A549 NSCLC
ACHN renal = system: ACHN renal
BT-549 breast = system: BT-549 breast
CAKI-1 renal = system: CAKI-1 renal
CCRF-CEM leukemia = system: CCRF-CEM leukemia
COLO 205 colon = system: COLO 205 colon
DU-145 prostate = system: DU-145 prostate
EKVX NSCLC = system: EKVX NSCLC
HCT-116 colon = system: HCT-116 colon
HCT-15 colon = system: HCT-15 colon
HL-60(TB) leukemia = system: HL-60(TB) leukemia
HOP-62 NSCLC = system: HOP-62 NSCLC
HOP-92 NSCLC = system: HOP-92 NSCLC
HS 578T breast = system: HS 578T breast
HT29 colon = system: HT29 colon
IGROV1 ovarian = system: IGROV1 ovarian
K-562 leukemia = system: K-562 leukemia
KM12 colon = system: KM12 colon
LOX IMVI melanoma = system: LOX IMVI melanoma
M14 melanoma = system: M14 melanoma
MALME-3M melanoma = system: MALME-3M melanoma
MCF7 breast = system: MCF7 breast
MDA-MB-231 breast = system: MDA-MB-231 breast
MDA-MB-435 = system: MDA-MB-435
MDA-N = system: MDA-N
MOLT-4 leukemia = system: MOLT-4 leukemia
NCI-H226 lung = system: NCI-H226 lung
NCI-H23 lung = system: NCI-H23 lung
NCI-H460 lung = system: NCI-H460 lung
NCI-H522 lung = system: NCI-H522 lung
NCI/ADR-RES ovarian = system: NCI/ADR-RES ovarian
OVCAR-3 ovarian = system: OVCAR-3 ovarian
OVCAR-4 ovarian = system: OVCAR-4 ovarian
OVCAR-5 ovarian = system: OVCAR-5 ovarian
OVCAR-8 ovarian = system: OVCAR-8 ovarian
PC-3 prostate = system: PC-3 prostate
RPMI-8226 leukemia = system: RPMI-8226 leukemia
RXF 393 renal = system: RXF 393 renal
SF-268 CNS = system: SF-268 CNS
SF-295 CNS = system: SF-295 CNS
SF-539 CNS = system: SF-539 CNS
SK-MEL-2 melanoma = system: SK-MEL-2 melanoma
SK-MEL-28 melanoma = system: SK-MEL-28 melanoma
SK-MEL-5 melanoma = system: SK-MEL-5 melanoma
SK-OV-3 ovarian = system: SK-OV-3 ovarian
SN12C renal = system: SN12C renal
SNB-19 CNS = system: SNB-19 CNS
SNB-75 CNS = system: SNB-75 CNS
SR leukemia = system: SR leukemia
SW-620 colon = system: SW-620 colon
T-47D breast = system: T-47D breast
TK-10 renal = system: TK-10 renal
U251 CNS = system: U251 CNS
UACC-257 melanoma = system: UACC-257 melanoma
UACC-62 melanoma = system: UACC-62 melanoma
UO-31 renal = system: UO-31 renal

Cc1cc2ccc(OC(=O)c3ccc(N=C(N)N)cc3)cc2oc1=O
TGI (786-0 renal): 64.6 µM | TGI (A498 renal): 43.9 µM | TGI (A549 NSCLC): > 100 µM | TGI (ACHN renal): > 100 µM | TGI (BT-549 breast): 64.6 µM | TGI (CAKI-1 renal): > 100 µM | TGI (CCRF-CEM leukemia): > 100 µM | TGI (COLO 205 colon): 55.9 µM | TGI (DU-145 prostate): > 100 µM | TGI (EKVX NSCLC): > 100 µM | TGI (HCT-116 colon): 76.5 µM | TGI (HCT-15 colon): > 100 µM | TGI (HL-60(TB) leukemia): 45.8 µM | TGI (HOP-62 NSCLC): 48.5 µM | TGI (HOP-92 NSCLC): > 100 µM | TGI (HS 578T breast): 71.6 µM | TGI (HT29 colon): 70.4 µM | TGI (IGROV1 ovarian): > 100 µM | TGI (K-562 leukemia): 74.9 µM | TGI (KM12 colon): 61.1 µM | TGI (LOX IMVI melanoma): > 100 µM | TGI (M14 melanoma): 97.7 µM | TGI (MALME-3M melanoma): 60.7 µM | TGI (MCF7 breast): 54.9 µM | TGI (MDA-MB-231 breast): 49.2 µM | TGI (MDA-MB-435): 58.1 µM | TGI (MDA-N): 83.8 µM | TGI (MOLT-4 leukemia): 54.4 µM | TGI (NCI-H226 lung): 56.2 µM | TGI (NCI-H23 lung): 46.5 µM | TGI (NCI-H460 lung): > 100 µM | TGI (NCI-H522 lung): 45.2 µM | TGI (NCI/ADR-RES ovarian): > 100 µM | TGI (OVCAR-3 ovarian): 45.9 µM | TGI (OVCAR-4 ovarian): 46.6 µM | TGI (OVCAR-5 ovarian): > 100 µM | TGI (OVCAR-8 ovarian): > 100 µM | TGI (PC-3 prostate): 78.5 µM | TGI (RPMI-8226 leukemia): 55.1 µM | TGI (RXF 393 renal): > 100 µM | TGI (SF-268 CNS): 73.8 µM | TGI (SF-295 CNS): > 100 µM | TGI (SF-539 CNS): 61.6 µM | TGI (SK-MEL-2 melanoma): 60.9 µM | TGI (SK-MEL-28 melanoma): 58.6 µM | TGI (SK-MEL-5 melanoma): > 100 µM | TGI (SK-OV-3 ovarian): 46.4 µM | TGI (SN12C renal): 64 µM | TGI (SNB-19 CNS): 54.8 µM | TGI (SNB-75 CNS): 71.9 µM | TGI (SR leukemia): 58.4 µM | TGI (SW-620 colon): 78.5 µM | TGI (T-47D breast): 95 µM | TGI (TK-10 renal): 49.8 µM | TGI (U251 CNS): 45.6 µM | TGI (UACC-257 melanoma): > 100 µM | TGI (UACC-62 melanoma): 79.1 µM | TGI (UO-31 renal): > 100 µM

Cc1cc(C)c2c(=O)n(CC(O)CN3CCN(CCOCCO)CC3)sc2n1 (stereo not given)
TGI (786-0 renal): 30.6 µM | TGI (A498 renal): 38.9 µM | TGI (A549 NSCLC): > 100 µM | TGI (ACHN renal): 35 µM | TGI (BT-549 breast): 31.1 µM | TGI (CAKI-1 renal): > 100 µM | TGI (CCRF-CEM leukemia): > 100 µM | TGI (COLO 205 colon): 34.1 µM | TGI (DU-145 prostate): 48.2 µM | TGI (EKVX NSCLC): 35.3 µM | TGI (HCT-116 colon): 30.8 µM | TGI (HCT-15 colon): > 100 µM | TGI (HL-60(TB) leukemia): 54.4 µM | TGI (HOP-62 NSCLC): 70.6 µM | TGI (HOP-92 NSCLC): 40.6 µM | TGI (HS 578T breast): 77.8 µM | TGI (HT29 colon): 39.6 µM | TGI (IGROV1 ovarian): > 100 µM | TGI (K-562 leukemia): > 100 µM | TGI (KM12 colon): 48 µM | TGI (LOX IMVI melanoma): 37.1 µM | TGI (M14 melanoma): 33.5 µM | TGI (MALME-3M melanoma): 35.4 µM | TGI (MCF7 breast): 34.2 µM | TGI (MDA-MB-231 breast): 37.6 µM | TGI (MDA-MB-435): 32.8 µM | TGI (MDA-N): 29.2 µM | TGI (MOLT-4 leukemia): 73.5 µM | TGI (NCI-H226 lung): > 100 µM | TGI (NCI-H23 lung): 30.3 µM | TGI (NCI-H460 lung): 39 µM | TGI (NCI-H522 lung): 32.1 µM | TGI (NCI/ADR-RES ovarian): > 100 µM | TGI (OVCAR-3 ovarian): 41.3 µM | TGI (OVCAR-4 ovarian): 34.5 µM | TGI (OVCAR-5 ovarian): 34.8 µM | TGI (OVCAR-8 ovarian): 39.9 µM | TGI (PC-3 prostate): 40.7 µM | TGI (RXF 393 renal): 21 µM | TGI (SF-268 CNS): 39.8 µM | TGI (SF-295 CNS): > 100 µM | TGI (SF-539 CNS): 38.4 µM | TGI (SK-MEL-2 melanoma): 39.9 µM | TGI (SK-MEL-28 melanoma): 35.7 µM | TGI (SK-MEL-5 melanoma): 34.5 µM | TGI (SK-OV-3 ovarian): 60.7 µM | TGI (SN12C renal): 37.1 µM | TGI (SNB-19 CNS): > 100 µM | TGI (SNB-75 CNS): 5.78 µM | TGI (SR leukemia): > 100 µM | TGI (SW-620 colon): > 100 µM | TGI (T-47D breast): 47.2 µM | TGI (TK-10 renal): 31.3 µM | TGI (U251 CNS): 36.3 µM | TGI (UACC-257 melanoma): 24.6 µM | TGI (UACC-62 melanoma): 32.7 µM | TGI (UO-31 renal): 47.8 µM
